From patent US20070172957A1, “Methods of identifying anti-inflammatory macrolides” (TAISHO PHARMACEUTICAL CO., LTD., priority 2004, published 2007)

Tested on: genes predictive for the anti-inflammatory macrolide effect
Test: Genes statistically predictive of Clari response: differentially expressed with Clari but not the inactive macrolides MAA or Josa (Appendix E)
Format: cell-based
Source text: In the case of the above-mentioned (i) related to arachidonic acid biosynthesis, specifically, methods of the embodiment involve assaying whether a test macrolide alters biosynthesis of arachidonic acid, alters the expression or activities of enzymes involved in the biosynthesis or activation of arachidonic acid (e.g., arachidonic acid CoA synthetase, delta-6 desaturase, fatty acid elongase, and delta-5 desaturase, AA-related genes in Tables 2 and 3), or alters the expression of genes identified as predictive for the anti-inflammatory macrolide effect (Appendix E). Assays in which arachidonic acid or gene expression or enzymatic activity is detected can be carried out after contacting a cell with a test macrolide. Any cell line that secretes prostaglandin or produces arachidonic acid can be used. Epithelial and macrophages lines (e.g., A549 or THP-1) are suitable for this purpose; other cell lines can be identified by carrying out assays such as those described in the specific Examples, below. Alternatively, screening assays can be carried out after adding a test macrolide to an in vitro cell system (e.g., a cellular extract or liver microsome preparation) or an in vitro enzyme assay system.

For `CO[C@@H]1[C@@H](O[C@@H]2O[C@H](C)[C@@H](O[C@H]3C[C@@](C)(O)[C@@H](OC(=O)CC(C)C)[C@H](C)O3)[C@H](N(C)C)[C@H]2O)[C@@H](CC=O)C[C@@H](C)[C@@H](O)/C=C/C=C/C[C@@H](C)OC(=O)C[C@H]1OC(C)=O` [josamycin], which “group mean, gene BCKDK” value (SpotID 47949, MAA and Josa vs. Clari) is on record?
Its value is 1.07.

And the “group mean, gene DNASE1L1” value (SpotID 47950, MAA and Josa vs. Clari)?
The value was 0.96.

And the “mean group, DNASE1L1” value (SpotID 47950, pooled group mean)?
The value was 0.96.

What about the “group mean, gene COX15” value (SpotID 47951, MAA and Josa vs. Clari) of the same molecule?
Its value is 1.05.

And the “mean group, USF2” value (SpotID 47973, pooled group mean)?
Its value is 0.96.

What about the “group mean, gene THBS1” value (SpotID 47987, MAA and Josa vs. Clari) of the same molecule?
Its value is 1.02.

What about the “mean group, THBS1” value (SpotID 47987, pooled group mean) of the same molecule?
The value was 1.02.

And the “mean group, RPN2” value (SpotID 47988, pooled group mean)?
The value was 0.93.

What about the “group mean, gene PTGER1” value (SpotID 47995, MAA and Josa vs. Clari) of the same molecule?
The value was 1.00.

What about the “group mean, gene CTSH” value (SpotID 48000, MAA and Josa vs. Clari) of the same molecule?
The value was 0.93.

What about the “mean group, CUTL1” value (SpotID 48004, pooled group mean) of the same molecule?
Its value is 1.22.

What about the “group mean, gene BCL2L2” value (SpotID 48006, MAA and Josa vs. Clari) of the same molecule?
The value was 0.86.

What about the “mean group, SRF” value (SpotID 48026, pooled group mean) of the same molecule?
Its value is 0.94.

And the “group mean, gene SCN1B” value (SpotID 48121, MAA and Josa vs. Clari)?
The value was 0.90.

And the “mean group, FRDA” value (SpotID 48137, pooled group mean)?
The value was 1.03.

What about the “group mean, gene SFRS7” value (SpotID 48149, MAA and Josa vs. Clari) of the same molecule?
The value was 0.98.

What about the “mean group, SFRS7” value (SpotID 48149, pooled group mean) of the same molecule?
The value was 0.98.

And the “group mean, gene ZAP3” value (SpotID 48160, MAA and Josa vs. Clari)?
Its value is 1.08.

And the “mean group, ZAP3” value (SpotID 48160, pooled group mean)?
Its value is 1.08.

And the “group mean, gene SNAPC1” value (SpotID 48182, MAA and Josa vs. Clari)?
The value was 1.00.

What about the “group mean, gene OPA1” value (SpotID 48192, MAA and Josa vs. Clari) of the same molecule?
Its value is 1.02.

What about the “group mean, gene BAT8” value (SpotID 48214, MAA and Josa vs. Clari) of the same molecule?
Its value is 1.02.

And the “group mean, gene MAPK12” value (SpotID 48233, MAA and Josa vs. Clari)?
Its value is 0.88.

And the “mean group, MAPK12” value (SpotID 48233, pooled group mean)?
Its value is 0.88.

And the “group mean, gene DAXX” value (SpotID 48235, MAA and Josa vs. Clari)?
The value was 1.02.

And the “group mean, gene GRB2” value (SpotID 48266, MAA and Josa vs. Clari)?
Its value is 0.93.

What about the “mean group, GRB2” value (SpotID 48266, pooled group mean) of the same molecule?
The value was 0.93.

What about the “group mean, gene ARHC” value (SpotID 48280, MAA and Josa vs. Clari) of the same molecule?
The value was 0.90.

What about the “group mean, gene GCN5L1” value (SpotID 48301, MAA and Josa vs. Clari) of the same molecule?
The value was 0.93.

And the “mean group, GCN5L1” value (SpotID 48301, pooled group mean)?
Its value is 0.93.

What about the “group mean, gene FN1” value (SpotID 48328, MAA and Josa vs. Clari) of the same molecule?
Its value is 1.00.

What about the “group mean, gene DNMT1” value (SpotID 48333, MAA and Josa vs. Clari) of the same molecule?
The value was 0.97.

What about the “mean group, CCT3” value (SpotID 48345, pooled group mean) of the same molecule?
Its value is 0.97.

What about the “group mean, gene FN1” value (SpotID 48348, MAA and Josa vs. Clari) of the same molecule?
Its value is 1.00.

And the “group mean, gene CNOT2” value (SpotID 48363, MAA and Josa vs. Clari)?
The value was 1.03.

What about the “group mean, gene MAPK9” value (SpotID 48365, MAA and Josa vs. Clari) of the same molecule?
Its value is 1.04.

What about the “mean group, MAPK9” value (SpotID 48365, pooled group mean) of the same molecule?
Its value is 1.04.

And the “group mean, gene CNOT2” value (SpotID 48396, MAA and Josa vs. Clari)?
Its value is 1.04.

And the “group mean, gene HIF1A” value (SpotID 48397, MAA and Josa vs. Clari)?
The value was 1.09.

And the “group mean, gene MGEA5” value (SpotID 48411, MAA and Josa vs. Clari)?
The value was 0.97.

And the “mean group, MGEA5” value (SpotID 48411, pooled group mean)?
Its value is 0.97.

And the “group mean, gene SERPINB1” value (SpotID 48415, MAA and Josa vs. Clari)?
The value was 1.02.

And the “mean group, SERPINB1” value (SpotID 48415, pooled group mean)?
Its value is 1.02.

And the “group mean, gene M6PR” value (SpotID 48451, MAA and Josa vs. Clari)?
Its value is 0.97.

And the “group mean, gene DDC” value (SpotID 48456, MAA and Josa vs. Clari)?
The value was 1.12.

And the “mean group, DDC” value (SpotID 48456, pooled group mean)?
Its value is 1.12.

What about the “mean group, BARD1” value (SpotID 48461, pooled group mean) of the same molecule?
The value was 0.98.

What about the “group mean, gene MCM5” value (SpotID 48470, MAA and Josa vs. Clari) of the same molecule?
Its value is 0.97.

What about the “group mean, gene RBM3” value (SpotID 48471, MAA and Josa vs. Clari) of the same molecule?
The value was 1.06.

What about the “mean group, SpotID 48486” value (SpotID 48486 (gene symbol not given), pooled group mean) of the same molecule?
Its value is 1.21.

And the “group mean, gene RPL13A” value (SpotID 48500, MAA and Josa vs. Clari)?
The value was 1.05.

What about the “mean group, RPL13A” value (SpotID 48500, pooled group mean) of the same molecule?
The value was 1.05.

And the “group mean, gene USP24” value (SpotID 48508, MAA and Josa vs. Clari)?
Its value is 1.03.

And the “group mean, gene ARAF1” value (SpotID 48521, MAA and Josa vs. Clari)?
The value was 1.12.

And the “mean group, ARAF1” value (SpotID 48521, pooled group mean)?
The value was 1.12.

What about the “group mean, gene APLP2” value (SpotID 48530, MAA and Josa vs. Clari) of the same molecule?
The value was 0.95.

What about the “mean group, APLP2” value (SpotID 48530, pooled group mean) of the same molecule?
The value was 0.95.

What about the “mean group, NFE2L1” value (SpotID 48557, pooled group mean) of the same molecule?
The value was 0.97.

What about the “mean group, XBP1” value (SpotID 48620, pooled group mean) of the same molecule?
Its value is 0.98.

What about the “group mean, gene DIP2” value (SpotID 48643, MAA and Josa vs. Clari) of the same molecule?
The value was 1.00.

And the “group mean, gene KIAA0323” value (SpotID 48644, MAA and Josa vs. Clari)?
The value was 1.01.

And the “group mean, gene SDCBP” value (SpotID 48646, MAA and Josa vs. Clari)?
Its value is 0.97.

And the “mean group, SDCBP” value (SpotID 48646, pooled group mean)?
The value was 0.97.

And the “mean group, FECH” value (SpotID 48654, pooled group mean)?
Its value is 1.05.

What about the “group mean, gene CHK” value (SpotID 48672, MAA and Josa vs. Clari) of the same molecule?
The value was 0.87.

And the “group mean, gene HSPBP1” value (SpotID 48693, MAA and Josa vs. Clari)?
Its value is 1.04.

And the “mean group, HSPBP1” value (SpotID 48693, pooled group mean)?
The value was 1.04.

What about the “group mean, gene SIGIRR” value (SpotID 48705, MAA and Josa vs. Clari) of the same molecule?
Its value is 0.97.

What about the “group mean, gene P4HA1” value (SpotID 48707, MAA and Josa vs. Clari) of the same molecule?
The value was 0.97.

And the “mean group, P4HA1” value (SpotID 48707, pooled group mean)?
The value was 0.97.

What about the “group mean, gene MKNK2” value (SpotID 48713, MAA and Josa vs. Clari) of the same molecule?
The value was 0.96.

What about the “mean group, PPP3CB” value (SpotID 48717, pooled group mean) of the same molecule?
Its value is 1.09.

What about the “group mean, gene IKKE” value (SpotID 48725, MAA and Josa vs. Clari) of the same molecule?
Its value is 0.84.

And the “mean group, IKKE” value (SpotID 48725, pooled group mean)?
Its value is 0.84.

What about the “mean group, RALA” value (SpotID 48732, pooled group mean) of the same molecule?
The value was 0.98.

What about the “mean group, MAFB” value (SpotID 48747, pooled group mean) of the same molecule?
The value was 1.14.

What about the “group mean, gene KIAA0217” value (SpotID 48804, MAA and Josa vs. Clari) of the same molecule?
The value was 1.01.

And the “mean group, KIAA0217” value (SpotID 48804, pooled group mean)?
The value was 1.01.
